Earlier results on 4 compounds are cited in patent US20040192598A1, “Composition and method of alleviating adverse side effects and/or enhancing efficacy of agents that inhibit aromatase” (priority 2000, published 2004).

One data set has as its target T1, aromatase (Homo sapiens, UniProt P11511).
T1 construct: host or cells: patients (in vivo, endogenous enzyme)
T1 sequence (P11511 1-503): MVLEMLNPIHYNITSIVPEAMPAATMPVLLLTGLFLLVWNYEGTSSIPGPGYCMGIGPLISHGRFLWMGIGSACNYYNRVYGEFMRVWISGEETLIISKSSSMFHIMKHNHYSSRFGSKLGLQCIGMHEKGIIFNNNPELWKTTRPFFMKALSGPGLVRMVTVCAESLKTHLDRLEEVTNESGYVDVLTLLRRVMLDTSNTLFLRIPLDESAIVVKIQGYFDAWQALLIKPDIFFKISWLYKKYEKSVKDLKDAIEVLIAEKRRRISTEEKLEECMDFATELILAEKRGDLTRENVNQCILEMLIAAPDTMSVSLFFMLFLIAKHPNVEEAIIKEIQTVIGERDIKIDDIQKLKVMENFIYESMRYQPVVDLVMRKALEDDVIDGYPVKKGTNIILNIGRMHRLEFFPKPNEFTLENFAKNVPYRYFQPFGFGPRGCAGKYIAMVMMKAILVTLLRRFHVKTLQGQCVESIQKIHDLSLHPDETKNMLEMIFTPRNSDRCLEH
Conditions: treatment for breast cancer.

Where two headings read alike, the source gives them in different places.

Turning to `N#Cc1ccc(C(c2ccc(C#N)cc2)n2cncn2)cc1` [Letrozole], the serum estrogen levels entry on aromatase is “suppress serum estrogen levels to the limit of assay detection”.
Turning to `CC(C)(C#N)c1cc(Cn2cncn2)cc(C(C)(C)C#N)c1` [anastrozole], the serum estrogen levels entry at aromatase was “suppress serum estrogen levels to the limit of assay detection”.
For the compound `Clc1ccccc1C(c1ccccc1)(c1ccccc1)n1ccnc1` [clotrimazole], the “relative risk for spontaneous abortion” value (in vivo) is “increased relative risk was also noted”.
Turning to `C[C@@H]1[C@H](O)[C@@H](C)/C=C/C=C/CC/C=C/C=C/C=C/C=C/C(O[C@H]2O[C@H](C)[C@@H](O)[C@H](N)[C@@H]2O)CC2O[C@](O)(CC(O)C(O)CCC(O)CC(O)CC(O)CC(=O)O[C@H]1C)CC(O)C2C(=O)O` (stereo partly shown) [nystatin], the “relative risk for spontaneous abortion” value (first-trimester exposure, independent of drug therapy indication) was “not”.
